Measured values reported in patent US10676466B2, “Crystalline hydrate of the compound (2S,3R)-isopropyl 2-(((2-(1,5-dimethyl-6-oxo-1,6-dihydropyridin-3-yl)-1-((tetrahydro-2H-pyran-4-yl)methyl)-1H-benzo[D]imidazol-5-yl)methyl)amino)-3-hydroxybutanoate edisylate” (GLAXOSMITHKLINE INTELLECTUAL PROPERTY DEVELOPMENT LIMITED, priority 2016, dated 2020).
Structures can show the parent of a compound that is named as a salt.

What was measured:
[1] = test system: MCP-1 production; test: LPS induced MCP-1 production from human whole blood; assay type: cell-based; details: LPS 200 ng/mL, 18-24 hours
Experimental: Activation of monocytic cells by agonists of toll-like receptors such as bacterial lipopolysaccharide (LPS) results in production of key inflammatory mediators including MCP-1. Such pathways are widely considered to be central to the pathophysiology of a range of auto-immune and inflammatory disorders. Blood is collected in a tube containing Sodium heparin (Leo Pharmaceuticals) (10 units of heparin/mL of blood). 96-well compound plates containing 1 μL test sample in 100% DMSO were prepared (two replicates on account of donor variability). 130 μL of whole blood was dispensed into each well of the 96-well compound plates and incubated for 30 min at 37° C., 5% CO2. 10 μL of lipopolysaccharide (from Salmonella typhosa; L6386) made up in PBS (200 ng/mL final assay concentration) was added to each well of the compound plates. The plates were then placed in the humidified primary cell incubator for 18-24 hours at 37° C., 5% CO2. 140 μL of PBS was added to all wells of the compound plates containing blood. The plates were then sealed and centrifuged for 10 mins at 2500 rpm. […] 150 μL of 2×MSD Read Buffer T (stock 4×MSD Read Buffer T was diluted 50:50 with de-ionised water) was then added to each well and the plates read on the MSD Sector Imager 6000. Concentration response curves for each compound were generated from the data and an pIC50 value was calculated.

[2] = test system: Bromodomains BRD2, BRD3, BRD4 and BRDT; test: Fluoroligand binding to mutated vs non-mutated bromodomain (TR-FRET); set-up: species or system Human; details: single residue mutations in the acetyl lysine binding pocket
Experimental: The binding of compounds of the invention to Bromodomains BRD2, BRD3, BRD4 and BRDT was assessed using mutated proteins to detect differential binding to either Binding Domain 1 (BD1) or Binding Domain 2 (BD2) on the bromodomain. These single residue mutations in the acetyl lysine binding pocket greatly lower the affinity of the fluoroligand (Reference Compound X) for the mutated domain (>1000 fold selective for the non-mutated domain). Therefore in the final assay conditions, binding of the fluoroligand to the mutated domain cannot be detected and subsequently the assay is suitable to determine the binding of compounds to the single non-mutated bromodomain.
Recombinant Human Bromodomains [(BRD2 (1-473) (Y113A) and (Y386A), BRD3 (1-435) (Y73A) and (Y348A) BRD4 (1-477) (Y97A) and (Y390A) and BRDT (1-397) (Y66A) and (Y309A)] were expressed in E. coli cells (in pET15b vector for BRD2/3/4 and in pET28a vector for BRDT) with a 6-His tag at the N-terminal. The His-tagged Bromodomain pellet was resuspended in 50 mM HEPES (pH7.5), 300 mM NaCl, 10 mM imidazole & 1 μl/ml protease inhibitor cocktail and extracted from the E. coli cells using sonication and purified using a nickel sepharose high performance column, the proteins were washed and then eluted with a linear gradient of 0-500 mM imidazole with buffer 50 mM HEPES (pH7.5), 150 mM NaCl, 500 mM imidazole, over 20 column volumes. […]

[3] = target: T1, recombinant human CES1 (Homo sapiens, UniProt P23141); test: Hydrolysis by hCES-1 (HPLC assay); assay type: in vitro ADME; details: 50 μM test compound, 50 nM CES1, 20° C., pH 7.5, n=2
T1 construct: Recombinant human CES1 (Gly18-Glu563, bearing a polyhistidine tag at the C-terminus); purchased Novoprotein, Summit, N.J., USA C450; host or cells: human cells
T1 sequence (P23141 18-563): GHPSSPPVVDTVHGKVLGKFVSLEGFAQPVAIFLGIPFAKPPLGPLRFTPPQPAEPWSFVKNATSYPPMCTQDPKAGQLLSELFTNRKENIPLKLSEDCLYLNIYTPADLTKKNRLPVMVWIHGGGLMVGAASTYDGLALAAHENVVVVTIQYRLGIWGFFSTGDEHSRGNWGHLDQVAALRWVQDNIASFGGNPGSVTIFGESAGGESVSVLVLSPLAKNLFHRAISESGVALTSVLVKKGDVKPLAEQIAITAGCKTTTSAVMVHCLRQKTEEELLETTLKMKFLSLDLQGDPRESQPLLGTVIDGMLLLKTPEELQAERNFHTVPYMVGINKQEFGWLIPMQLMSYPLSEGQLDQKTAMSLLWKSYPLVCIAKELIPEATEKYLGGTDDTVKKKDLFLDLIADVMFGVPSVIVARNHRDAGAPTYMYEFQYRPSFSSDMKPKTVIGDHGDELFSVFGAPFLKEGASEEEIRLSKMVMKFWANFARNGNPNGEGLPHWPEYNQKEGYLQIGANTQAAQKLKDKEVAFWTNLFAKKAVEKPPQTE
Experimental: Hydrolysis of ESM-containing BET inhibitors by carboxylesterase 1 (CES1) is one aspect of delivering a targeted molecule. Rates of hydrolysis of certain compounds of the invention by recombinant human CES1 were determined using an HPLC assay. Recombinant human CES1 (Gly18-Glu563, bearing a polyhistidine tag at the C-terminus) expressed in human cells and purified to homogeneity was obtained from Novoprotein, Summit, N.J., USA (catalogue number C450). Reactions were run in 384 well plates at 20° C. in a buffer of 50 mM sodium phosphate pH 7.5/100 mM NaCl. Assays used a fixed concentration of test compound (50 μM) and CES1 (50 nM) and a time course of the reaction was obtained by stopping samples at increasing times by addition of formic acid to lower the pH. Stopped samples were subsequently analysed by HPLC to resolve product acid from unhydrolysed ester, using a 50×2 mm C18 […] reversed-phase column (Phenomenex Gemini) at a flow rate of 1 ml/min using a gradient of acetonitrile in water, containing 0.1% formic acid. Chromatogaphy was monitored using absorbance at 300 nm wavelength. The % of product formed was determined using integrated peak areas and used to determine the initial rate of the reaction. […]

Which “mean pIC50, LPS induced MCP-1 production” value [1] does the source give for `Cc1cc(-c2nc3cc(CN[C@H](C(=O)OC(C)C)[C@@H](C)O)ccc3n2CC2CCOCC2)cn(C)c1=O` [edisylate salt of Example 1, Edisylate Salt of (2S,3R)-Isopropyl 2-(((2-(1,5-dimethyl-6-oxo-1,6-dihydropyridin-3-yl)-1-((tetrahydro-2H-pyran-4-yl)methyl)-1H-benzo[d]imidazol-5-yl)methyl)amino)-3-hydroxybutanoate] here?
Its value is 7.5.

Which melting point does the source give for `Cc1cc(-c2nc3cc(CN[C@H](C(=O)OC(C)C)[C@@H](C)O)ccc3n2CC2CCOCC2)cn(C)c1=O` (as salt: edisylate) (hydrate or solvate) [Example 1, (2S,3R)-Isopropyl 2-(((2-(1,5-dimethyl-6-oxo-1,6-dihydropyridin-3-yl)-1-((tetrahydro-2H-pyran-4-yl)methyl)-1H-benzo[d]imidazol-5-yl)methyl)amino)-3-hydroxybutanoate] here?
The melting point was ~ 223 °C.

For `COc1ccc2c(c1)C(c1ccc(Cl)cc1)=N[C@@H](CC(=O)NCCCCCNC(=O)CCCCCC1(C)/C(=C/C=C/C=C/C3=[N+](CCCCS(=O)(=O)O)c4ccc(S(=O)(=O)O)cc4C3(C)C)N(CCCCS(=O)(=O)[O-])c3ccc(S(=O)(=O)O)cc31)c1nnc(C)n1-2` (some centres unmarked) [Reference Compound X], which “selectivity for the non-mutated domain over the mutated domain” value [2] is on record?
The value was over 1000 fold.

With `Cc1cc(-c2nc3cc(CN[C@H](C(=O)OC(C)C)[C@@H](C)O)ccc3n2CC2CCOCC2)cn(C)c1=O` [Example 1, (2S,3R)-Isopropyl 2-(((2-(1,5-dimethyl-6-oxo-1,6-dihydropyridin-3-yl)-1-((tetrahydro-2H-pyran-4-yl)methyl)-1H-benzo[d]imidazol-5-yl)methyl)amino)-3-hydroxybutanoate] as the compound, how does the “mean rate of hydrolysis (specific activity of CES1)” value [3] read?
The value was 0.21 μM/min/μM.

What about the IC50 ([1]; Homo sapiens, read-out: mean pIC50, LPS induced MCP-1 production (converted)) of the same compound?
The IC50 was 25.1 nM.
